The NIST ThermoML archive (doi:10.1016/j.jct.2015.01.015)
Numbers after ± are expanded uncertainties.

Legend:
[1] = Crystal; DTA
[2] = Molar enthalpy of transition or fusion; settings: Crystal; DSC

| Compound | Normal melting temperature [1] [°C] | Molar enthalpy of transition or fusion [2] [kcal/mol] |
| --- | --- | --- |
| COc1ccc2c(c1)c(CC(=O)O)c(C)n2C(=O)c1ccc(Cl)cc1 | 160.0 ± 1.1 | 9.06 ± 0.574 |
| NC(=O)c1cccnc1 [3-pyridinecarboxamide] | 128.6 ± 1.1 | 5.4 ± 0.335 |
